Like-named read-outs stand apart in the source and are kept apart here.
Columns and labels:
[1] = test system: Spores of Bacillus subtilis; format: cell-based
Method: Bacillus subtilis was scattered over a nutrient agar medium and incubated at 37° C. for 1 week. Colonies were scraped off from the agar medium and washed by being suspended in a physiological saline solution, and Bacillus subtilis collected through centrifugal separation was taken to be cell spores. The cell spores were suspended in a physiological saline solution at a concentration of about 6×10^6 spores/mL. The suspension of cell spores was prepared so as to have the target concentration of cell spores by being diluted with purified water as appropriate.
On the other hand, a reagent having a pH of 7.0 was prepared and irradiated with light using the LED in the same manner as that described above in (1) to generate radicals. The reagent (chlorine dioxide radical concentration: 600 μmol/L) in which radicals were generated was diluted with a 10 mmol/L potassium phosphate buffer solution (pH: 7.0) as appropriate to prepare samples containing radicals at predetermined concentrations. […] Thereafter, the liquid mixture was scattered over brain heart agar, incubation was performed at 37° C. for 12 hours, and then the number of colonies was counted.
As control 1, a reagent having a pH of 7.0 that was not irradiated with light was added to the suspension of cell spores and was left to stand, and incubation was performed as described above, and then the number of colonies was counted. […]

[2] = ClO2 radical concentration over time (absorption spectrum); format: physicochemical; conditions: photoirradiation not performed
Method: 1 mL of each of the reagents was placed in a disposable cell UV (product name: Two-face transparent semimicro #1941,Nikko Hansen & CO., LTD.), and was irradiated with light via a side surface of the cell using an LED in the same manner as in Example 1 (1) described above. The photoirradiation was performed similarly to Example 1 described above, unless otherwise specified. […] Then, an absorption spectrum was measured over time from the start of irradiation using the double optical path spectrophotometer (product name: UV-2400PC, SHIMADZU CORPORATION), and the molar concentration of chlorite ions (ClO2^−) was calculated from an absorbance at the minimum absorption of the wavelength of 260 nm, and the molar concentration of chlorine dioxide radicals (ClO2^⋅) was calculated from an absorbance at the maximum absorption of the wavelength of 359 nm.

[3] = test system: Yeast cells; format: cell-based
Method: Yeast was inoculated into a modified YPE liquid medium (2% of polypeptone, 1% of yeast extract, 2% of ethanol, and 0.2% of glucose) and was incubated at 30° C. for 1 day. A bacterial liquid was collected from the liquid medium and washed by being suspended in purified water, and yeast cells collected through centrifugal separation were taken as a specimen. The cells were suspended in a 100 mmol/L potassium phosphate buffer solution (pH: 7.0) at a concentration of about 5×10^8 cells/mL. Also, the suspension of cells was diluted with a 100 mmol/L potassium phosphate buffer solution as appropriate so as to have a target concentration of cells.
The reagent containing chlorine dioxide radicals prepared as described above in (3) was diluted with a 10 mmol/L potassium phosphate buffer solution (pH: 7.0) to prepare a sample containing chlorine dioxide radicals at a concentration of 20 μmol/L. On the other hand, the suspension of cells prepared in (1) was diluted with a 10 mmol/L potassium phosphate buffer solution (pH: 7.0) such that the concentration of cells was about 5×10^8 cells/mL. Next, 0.5 mL of the sample containing chlorine dioxide radicals was mixed with 0.5 mL of the suspension of cell spores, and the liquid mixture was left to stand at room temperature for 30 minutes. Thereafter, the liquid mixture was scattered over brain heart agar and incubated at 30° C. for 1 day, and then the number of colonies was counted.
Then, similarly to Experiment 1 described above, 0.5 mL of a yeast solution having a yeast cell concentration of about 5×10^8 cells/mL was added to 0.5 mL of the reagent, and 1 mL of the resultant solution was placed in a disposable cell UV (product name: Two-face transparent semimicro #1941, Nikko Hansen & CO., LTD.), and was irradiated with light using an LED via a side surface of the cell. […] The radiant energy under the above condition was calculated as 37.8 J/cm^2. The solution after the treatment was scattered over brain heart agar after being diluted as appropriate, and incubated at 30° C. for 1 day, and then the number of colonies was counted.

[4] = test system: Candida albicans; format: cell-based
[5] = test system: respiratory chain; assay: Electron transfer activity of the respiratory chain in yeast cells; format: cell-based; conditions: in proportion to the reduction in survival rate
Text: (§1) Accordingly, it is supposed that the respiratory chain in mitochondria was one target portion of the yeast cells and the Candida cells treated with chlorine dioxide radicals. It is thought that when the respiratory chain is damaged, ROS (Reactive Oxygen Species) are generated, which leads to apoptosis and the death of cells.

[6] = test system: respiratory chain; assay: Electron transfer activity of the respiratory chain in Candida cells; format: cell-based, Candida albicans; conditions: in proportion to the reduction in survival rate
Text: as §1

[7] = test system: HT-29 cells (human colon adenocarcinoma cells); conditions: for cancer cells killed: 455 nm light 72 J/cm^2
Method: HT-29 cells (human colon adenocarcinoma cells) were inoculated into each well of a cell incubation microplate (subjected to surface treatment) having 96 wells and grown in a CO2 incubator at 37° C. in the presence of 5% of CO2 until the number of cells reached about 2000 cells/well. 90 μL of McCoy's 5a Medium (the name of a product manufactured by FUJIFILM Wako Pure Chemical Corporation) was used as the cell culture medium. Next, after each treatment described below in (1) to (6) was performed, the medium was replaced with 90 μL of McCoy's 5a Medium and the cells were incubated in the CO2 incubator for 2 days under the above conditions. 10 μL of a WST-8 solution (solution in a product “WST-8 Cell Proliferation Kit”, Funakoshi Co., Ltd.) was added to measure the number of living cells, then incubation was performed in the CO2 incubator (37° C.) for 5 hours, and thereafter an absorbance of 450 nm was measured using a microplate reader. The percentage of the absorbance of each sample relative to an absorbance when treatment (1), which was a control experiment, was performed was calculated. The absorbance when treatment (1) was performed was almost the same as the absorbance of untreated cells.
Conditions of treatments (1) to (6) and percentages of absorbances of samples obtained through the treatments were as follows. The amount by which the percentage of an absorbance decreased from 100% is presumed to be substantially equal to a death rate (%) of cancer cells.
(1) The medium was replaced with 100 μL of PBS (pH: 7.0)** and left to stand at room temperature for 30 minutes. ------ Absorbance percentage: 100% (2) The medium was replaced with 100 μL of PBS (pH: 7.0) and irradiated with light (radiant energy: 72 J/cm^2) at room temperature for 30 minutes using an LED (product name: M455L3, Thorlabs Japan Inc., wavelength: 455 nm, irradiance: 40 mW/cm^2). ------ Absorbance percentage: 96% (3) The medium was replaced with 100 μL of PBS (pH: 7.0) containing 1.4 mM of NaClO2 and left to stand at room temperature for 30 minutes. ------ Absorbance percentage: 97% (4) The medium was replaced with 100 μL of PBS (pH: 7.0) containing 1.4 mM of NaClO2 and irradiated with light (radiant energy: 72 J/cm^2) at room temperature for 30 minutes using an LED (product name: M455L3, Thorlabs Japan Inc., wavelength: 455 nm, irradiance: 40 mW/cm^2). ------ Absorbance percentage: 11% (5) The medium was replaced with 100 μL of PBS (pH: 7.0) containing 2.8 mM of NaClO2 and left to stand at room temperature for 30 minutes. ------ Absorbance percentage: 97% (6) The medium was replaced with 100 μL of PBS (pH: 7.0) containing 2.8 mM of NaClO2 and irradiated with light (radiant energy: 72 J/cm^2) at room temperature for 30 minutes using an LED (product name: M455L3, Thorlabs Japan Inc., wavelength: 455 nm, irradiance: 40 mW/cm^2). ------ Absorbance percentage: 6% **: A phosphate-buffered saline whose pH was adjusted to 7.0 and osmotic pressure was adjusted to be the same as that of a standard phosphate-buffered saline having a pH of 7.5 was used. Specifically, PBS (pH: 7.0) had the following composition: NaCl: 140 mM, KCl: 0.43 mM, KH2PO4: 3.72 mM, Na2HPO4: 5.81 mM.

[8] = Experiment 1: 20 μmol/L chlorine dioxide radical sample mixed 1:1 with cell suspension, room temperature 30 minutes
[9] = control: sodium chlorite aqueous solution not irradiated with light, 25° C. 1 hour

## [O][Cl+][O-] [chlorine dioxide radicals]
[1]; chlorine dioxide radical concentration 300 μmol/L, room temperature 30 minutes
  number of spores decreased to: ≤ 10^−6
[2]
  time in which ClO2 radical concentration decreased by about half: ~2 h
[3]; [8]
  concentration of cells after treatment: about 2.5×10^7 cells/mL
  survival rate relative to untreated: about one tenth
[4]; as Experiment 1 (pre-generated chlorine dioxide radicals)
  survival rate relative to untreated: about one tenth
[5]
  electron transfer activity of the respiratory chain: reduction
[6]
  electron transfer activity of the respiratory chain: reduction

## sodium chlorite
[1]; control 1: reagent pH 7.0 not irradiated with light
  reduction in the number of spores: not confirmed
[3]; [9]
  survival rate: did not decrease
[4]; as Experiment 2 (sodium chlorite with LED irradiation)
  survival rate relative to untreated: about one tenth
[4]; [9]
  survival rate: did not decrease
[7]; 1.4 mM
  cancer cells killed: about 89%
[7]; 2.8 mM
  cancer cells killed: ~94%
[7]; treatment (3): 1.4 mM, PBS pH 7.0, room temperature 30 minutes, no light
  Absorbance percentage (450 nm, relative to treatment (1)): 97%
[7]; treatment (4): 1.4 mM, PBS pH 7.0, 455 nm LED 40 mW/cm^2 30 minutes (72 J/cm^2)
  Absorbance percentage (450 nm, relative to treatment (1)): 11%
[7]; treatment (5): 2.8 mM, PBS pH 7.0, room temperature 30 minutes, no light
  Absorbance percentage (450 nm, relative to treatment (1)): 97%
[7]; treatment (6): 2.8 mM, PBS pH 7.0, 455 nm LED 40 mW/cm^2 30 minutes (72 J/cm^2)
  Absorbance percentage (450 nm, relative to treatment (1)): 6%

Reference: US20220339596A1, “METHOD FOR PRODUCING RADICALS, METHOD FOR STERILIZING SPORES, AND CANCER TREATMENT DRUG” (priority 2019, published 2022)
